± gives the expanded uncertainty stated by the source.
Assay: xn = mol fraction of the nth substance listed
Conditions: Liquid, Pycnometric method, x1 = 0.4998

FC(Cl)(Cl)Cl [trichlorofluoromethane] + FC(F)(Cl)Cl
Conditions | mass density [kg/m3]
229.99 K, 36407 kPa | 1642.58 ± 1.7
230 K, 1073 kPa | 1584.87 ± 2
230 K, 2061 kPa | 1587.07 ± 2
230 K, 3560 kPa | 1589.87 ± 2
230.01 K, 1362 kPa | 1585.49 ± 2
230.01 K, 1769 kPa | 1586.39 ± 2
230.01 K, 2415 kPa | 1587.69 ± 2
230.01 K, 2764 kPa | 1588.35 ± 2
230.01 K, 3080 kPa | 1589 ± 2
230.01 K, 10736 kPa | 1602.83 ± 1.9
230.01 K, 22197 kPa | 1621.64 ± 1.8
230.01 K, 50366 kPa | 1660.98 ± 1.7
230.01 K, 63788 kPa | 1677.26 ± 1.6
270 K, 755 kPa | 1479.99 ± 2
270 K, 1039 kPa | 1480.78 ± 2
270 K, 1716 kPa | 1482.68 ± 2
270 K, 2040 kPa | 1483.59 ± 2
270 K, 2400 kPa | 1484.58 ± 2
270 K, 2768 kPa | 1485.54 ± 2
270 K, 3627 kPa | 1487.88 ± 2
270 K, 15483 kPa | 1517.06 ± 1.8
270 K, 25381 kPa | 1538 ± 1.7
270 K, 35970 kPa | 1557.73 ± 1.7
270 K, 45944 kPa | 1574.79 ± 1.6
270 K, 56182 kPa | 1590.7 ± 1.6
270 K, 63322 kPa | 1601.09 ± 1.6
270.01 K, 1412 kPa | 1481.79 ± 2
270.01 K, 3077 kPa | 1486.41 ± 2
270.01 K, 8526 kPa | 1500.56 ± 1.9
298.14 K, 686 kPa | 1402.27 ± 2.1
298.14 K, 1019 kPa | 1403.48 ± 2.1
298.14 K, 2067 kPa | 1407.39 ± 2.1
298.14 K, 2429 kPa | 1408.71 ± 2.1
298.14 K, 2749 kPa | 1409.89 ± 2.1
298.14 K, 6905 kPa | 1424.28 ± 2
298.14 K, 14368 kPa | 1447.12 ± 1.9
298.14 K, 20993 kPa | 1465.01 ± 1.8
298.14 K, 42543 kPa | 1512.9 ± 1.6
298.14 K, 50266 kPa | 1527.35 ± 1.6
298.14 K, 57226 kPa | 1539.49 ± 1.6
298.14 K, 63755 kPa | 1550.31 ± 1.6
298.14 K, 69807 kPa | 1559.74 ± 1.5
298.15 K, 1398 kPa | 1404.87 ± 2.1
298.15 K, 1714 kPa | 1406.06 ± 2.1
298.15 K, 3086 kPa | 1411.1 ± 2.1
298.15 K, 3454 kPa | 1412.44 ± 2.1
298.15 K, 28151 kPa | 1482.31 ± 1.7
298.15 K, 36116 kPa | 1499.98 ± 1.6
319.99 K, 1077 kPa | 1338.31 ± 2.4
319.99 K, 1422 kPa | 1340.05 ± 2.4
319.99 K, 1769 kPa | 1341.72 ± 2.3
319.99 K, 2102 kPa | 1343.35 ± 2.3
319.99 K, 2468 kPa | 1345.14 ± 2.3
319.99 K, 2807 kPa | 1346.81 ± 2.3
319.99 K, 3154 kPa | 1348.46 ± 2.3
319.99 K, 3382 kPa | 1349.54 ± 2.2
319.99 K, 7540 kPa | 1367.61 ± 2.1
319.99 K, 14192 kPa | 1392.66 ± 1.9
319.99 K, 20555 kPa | 1413.23 ± 1.8
319.99 K, 27780 kPa | 1434.19 ± 1.7
319.99 K, 36829 kPa | 1456.94 ± 1.6
319.99 K, 43292 kPa | 1471.79 ± 1.6
319.99 K, 49802 kPa | 1485.45 ± 1.5
319.99 K, 56704 kPa | 1498.94 ± 1.5
319.99 K, 62748 kPa | 1510.07 ± 1.5
319.99 K, 69080 kPa | 1521.1 ± 1.5
349.98 K, 1415 kPa | 1240.4 ± 2.5
349.98 K, 2137 kPa | 1246.23 ± 2.7
349.98 K, 2476 kPa | 1248.87 ± 2.6
349.98 K, 2793 kPa | 1251.27 ± 2.6
349.98 K, 3057 kPa | 1253.22 ± 2.5
349.98 K, 3564 kPa | 1256.93 ± 2.5
349.98 K, 7128 kPa | 1280.11 ± 2.3
349.98 K, 14242 kPa | 1317.8 ± 2
349.98 K, 21180 kPa | 1347.2 ± 1.8
349.98 K, 27731 kPa | 1370.9 ± 1.7
349.98 K, 35848 kPa | 1396.4 ± 1.6
349.98 K, 42725 kPa | 1415.5 ± 1.6
349.98 K, 49699 kPa | 1433.1 ± 1.6
349.98 K, 63152 kPa | 1463.4 ± 1.5
349.98 K, 67876 kPa | 1472.9 ± 1.5
349.99 K, 1706 kPa | 1242.74 ± 2.6
349.99 K, 56839 kPa | 1449.7 ± 1.5
374.97 K, 2088 kPa | 1141.8 ± 3.1
374.97 K, 2486 kPa | 1147.25 ± 3.3
374.97 K, 3125 kPa | 1156.09 ± 3.4
374.97 K, 3513 kPa | 1160.16 ± 3.3
374.97 K, 7191 kPa | 1197.39 ± 2.6
374.97 K, 13814 kPa | 1245.37 ± 2.1
374.97 K, 21029 kPa | 1284.3 ± 1.9
374.97 K, 35276 kPa | 1341.17 ± 1.7
374.98 K, 2825 kPa | 1151.69 ± 3.3
374.98 K, 27477 kPa | 1312.44 ± 1.8
374.98 K, 42480 kPa | 1364.11 ± 1.6
374.98 K, 49122 kPa | 1383.05 ± 1.6
374.98 K, 55869 kPa | 1400.52 ± 1.6
374.98 K, 61365 kPa | 1413.75 ± 1.5
374.98 K, 69602 kPa | 1432.06 ± 1.6
399.96 K, 3164 kPa | 1019.46 ± 4
399.96 K, 4220 kPa | 1047.59 ± 4.6
399.96 K, 21341 kPa | 1223.13 ± 2
399.97 K, 3545 kPa | 1030.57 ± 4.2
399.97 K, 4902 kPa | 1062.22 ± 4.8
399.97 K, 5593 kPa | 1075.12 ± 4.6
399.97 K, 6171 kPa | 1085.57 ± 3.5
399.97 K, 7297 kPa | 1101.78 ± 3.2
399.97 K, 14445 kPa | 1176.05 ± 2.3
399.97 K, 27495 kPa | 1255.89 ± 1.8
399.97 K, 42176 kPa | 1315.43 ± 1.6
399.97 K, 49196 kPa | 1338.37 ± 1.6
399.97 K, 56478 kPa | 1359.31 ± 1.6
399.98 K, 35409 kPa | 1290.45 ± 1.7
399.98 K, 62903 kPa | 1376.29 ± 1.5
399.98 K, 68677 kPa | 1390.42 ± 1.6
424.96 K, 4905 kPa | 873.33 ± 5.4
424.96 K, 5555 kPa | 914.74 ± 4.7
424.96 K, 6222 kPa | 944.04 ± 4.2
424.96 K, 7091 kPa | 972.83 ± 3.5
424.96 K, 13955 kPa | 1091.53 ± 2.8
424.96 K, 27401 kPa | 1198.64 ± 1.9
424.97 K, 21076 kPa | 1156.9 ± 2.1
424.97 K, 35181 kPa | 1238.98 ± 1.7
424.97 K, 41997 kPa | 1268.18 ± 1.6
424.97 K, 49019 kPa | 1294.18 ± 1.6
424.97 K, 56094 kPa | 1317.32 ± 1.6
424.97 K, 62391 kPa | 1335.91 ± 1.6
424.97 K, 68657 kPa | 1352.82 ± 1.6
